The term pIC50 denotes −log10 of the IC50, conventionally taken in molar units. A high value points to a small IC50.

pIC50: −log10 of the molar value. Where a name gives a salt, the structure may show the parent alone. A value given as a limit tells only on which side of the number the result lay.

These results are taken from patent US5073563A, “Alkoxycoumarins substituted by a heterocyclic radical, their preparation and therapeutic agents containing these compounds” (BASF Aktiengesellschaft, priority 1988, dated 1991).

One test has as its target T1, MAO A (Rattus norvegicus, UniProt P21396).
T1 construct: determined in dilute rat brain homogenate; from tissue; host or cells: rat brain homogenate
T1 sequence (P21396 1-526): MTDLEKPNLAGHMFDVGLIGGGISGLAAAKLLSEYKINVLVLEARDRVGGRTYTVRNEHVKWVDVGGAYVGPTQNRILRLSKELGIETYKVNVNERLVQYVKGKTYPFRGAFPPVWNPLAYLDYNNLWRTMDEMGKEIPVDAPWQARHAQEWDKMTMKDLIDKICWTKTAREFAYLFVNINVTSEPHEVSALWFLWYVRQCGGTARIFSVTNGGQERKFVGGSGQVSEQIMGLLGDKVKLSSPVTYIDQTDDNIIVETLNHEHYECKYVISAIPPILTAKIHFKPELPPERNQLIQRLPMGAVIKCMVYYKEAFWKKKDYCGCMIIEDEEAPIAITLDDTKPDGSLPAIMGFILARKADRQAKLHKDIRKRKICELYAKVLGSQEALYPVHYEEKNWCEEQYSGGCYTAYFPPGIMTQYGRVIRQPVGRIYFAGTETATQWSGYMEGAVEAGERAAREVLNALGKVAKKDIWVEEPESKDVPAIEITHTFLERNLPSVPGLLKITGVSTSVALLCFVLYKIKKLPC
The test can be described thus: MAO A inhibition in dilute rat brain homogenate (14C substrate, 20 min at 37° C). It counts as biochemical. Particulars: 14C-phenylethylamine or 14C-tryptamine 0.4 μmol/l, logit-log regression. How it is done: (§1) The MAO-inhibiting activity of the novel compounds can be determined using standard methods. […] The mixture was incubated for 20 minutes at 37° C.
(§2) The blank value was determined in similar mixtures with an incubation time of t=0 min.
(§3) From the inhibitory values determined at the various inhibitor concentrations against a control, the mean inhibitory concentration (IC50) was calculated by linear regression following logit-log transformation.

Another test concerns the target T2, MAO B (Rattus norvegicus, UniProt P19643).
T2 construct: determined in dilute rat brain homogenate; from tissue; host or cells: rat brain homogenate
T2 sequence (P19643 1-520): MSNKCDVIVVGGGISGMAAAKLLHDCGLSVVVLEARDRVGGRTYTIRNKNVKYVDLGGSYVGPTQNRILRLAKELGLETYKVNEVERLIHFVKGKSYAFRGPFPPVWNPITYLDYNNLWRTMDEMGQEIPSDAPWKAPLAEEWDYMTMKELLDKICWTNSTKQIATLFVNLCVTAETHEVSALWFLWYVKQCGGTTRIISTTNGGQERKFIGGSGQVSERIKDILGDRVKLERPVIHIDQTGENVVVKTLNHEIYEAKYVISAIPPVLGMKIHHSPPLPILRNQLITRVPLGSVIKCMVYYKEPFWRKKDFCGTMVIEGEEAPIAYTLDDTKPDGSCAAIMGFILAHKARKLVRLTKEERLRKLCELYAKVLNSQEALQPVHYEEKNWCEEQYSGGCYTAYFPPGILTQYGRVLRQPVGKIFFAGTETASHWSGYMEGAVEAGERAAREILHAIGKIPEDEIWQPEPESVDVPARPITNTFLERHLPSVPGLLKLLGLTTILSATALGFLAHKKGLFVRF
The test can be described thus: MAO B inhibition in dilute rat brain homogenate (14C substrate, 20 min at 37° C). It counts as biochemical. The following applies: for IC50 ratio MAO A / MAO B: quotient of IC50 MAO A and IC50 MAO B (selectivity for MAO B), 20 min; for pIC50: rat brain homogenate, 14C-phenylethylamine or 14C-tryptamine 0.4 μmol/l, 20 minutes at 37° C, logit-log regression. How it is done:
as §1, §2, §3

For test [1] the following is noted: literature test; cited from earlier work.
For test [2] the following is noted: literature test; cited from earlier work. This is another data set of the same source.

With `Cc1c(C)c2ccc(OCc3coc(Cc4ccccc4)c3)cc2oc1=O` [Example 22, 7-(2-Benzylfuran-4-yl)-methoxy-3,4-dimethylcoumarin], at MAO A, the negative logarithm of the IC50 (pIC50) was less than 5.00. For the same molecule, on MAO B, the “IC50 ratio MAO A / MAO B” value is more than 6250 and the pIC50 is 8.80.

For `Cc1nnc(COc2ccc3cc(C)c(=O)oc3c2)s1` [Example 13, 3-Methyl-7-(2-methyl-1,3,4-thiadiazol-5-yl)-methoxycoumarin], at MAO A, the negative-log IC50 (pIC50) was less than 5.00. In addition, on MAO B, the “IC50 ratio MAO A / MAO B” value is reported as more than 667 and the pIC50 was 7.82.

With `Cc1c(C)c2ccc(OCc3cc(C4CCOC4)no3)cc2oc1=O` (stereo not shown) [Example 97, 3,4-Dimethyl-7-[3-(tetrahydrofuran-3-yl)-isoxazol-5-yl]-methoxycoumarin], at MAO A, the pIC50 is approximately 5.30. On MAO B, the “IC50 ratio MAO A / MAO B” value is given as ~ 1400 and the negative-log IC50 (pIC50) is 8.44.

Consider `Cc1nc(COc2ccc3c(C)c(C)c(=O)oc3c2)cs1` [Example 24, 3,4-Dimethyl-7-(2-methylthiazol-4-yl)-methoxycoumarin], for which the negative logarithm of the IC50 (pIC50) against MAO A is approximately 5.00. In addition, at MAO B, the “IC50 ratio MAO A / MAO B” value is on record as ~ 3300 and the pIC50 was 8.52.

Take `Cc1c(Cl)c(=O)oc2cc(OCc3cc(C(C)C)n(C)n3)ccc12` [Example 54, 3-Chloro-7-(5-isopropyl-1-methylpyrazol-3yl)-methoxy-4-methylcoumarin]: the pIC50 on MAO A was less than 5.00. On MAO B, the “IC50 ratio MAO A / MAO B” value was more than 6700 and the negative logarithm of the IC50 (pIC50) is 8.82.

With `CCc1cc2c(C)c(C)c(=O)oc2cc1OCc1cc(C(C)C)n(C)n1` [Example 84, 6-Ethyl-7-(5-isopropyl-1-methylpyrazol-3-yl)-methoxy-3,4-dimethylcoumarin], the pIC50 at MAO A is less than 5.00. Further, on MAO B, the “IC50 ratio MAO A / MAO B” value is on record as more than 1100 and the negative-log IC50 (pIC50) was 8.04.

As for `Cc1c(C)c2ccc(OCc3cc(C(C)C)nn3C)cc2oc1=O` [Example 72, 7-(3-Isopropyl-1-methylpyrazol-5-yl)-methoxy-3,4-dimethylcoumarin], the figures for the pIC50 on MAO A and against MAO B were approximately 5.00 and 8.31, respectively. In addition, the “IC50 ratio MAO A / MAO B” value on MAO B was ~ 2000.

With `Cc1c(C)c2ccc(OCc3csc(C(C)C)n3)cc2oc1=O` [Example 75, 7-(2-Isopropylthiazol-4-yl)-methoxy-3,4-dimethylcoumarin], the pIC50 against MAO A is approximately 5.00. Moreover, the “IC50 ratio MAO A / MAO B” value at MAO B was ~ 7000.

`Cc1nnc(COc2ccc3c4c(c(=O)oc3c2)CCCC4)s1` [Example 32, 3,4-Tetramethylen-7-(2-methyl-1,3,4-thiadiazol-5-yl)-methoxycoumarin] gave a pIC50 against MAO A of less than 5.00. Besides, on MAO B, the “IC50 ratio MAO A / MAO B” value is given as more than 1400 and the pIC50 was 8.15.

Turning to `Cc1c(C)c2ccc(OCc3cc(CC(C)C)no3)cc2oc1=O` [Example 34, 7-(3-Isobutylisoxazol-5-yl)-methoxy-3,4-dimethylcoumarin], the pIC50 against MAO A is approximately 5.00. Moreover, at MAO B, the “IC50 ratio MAO A / MAO B” value is given as ~ 4500 and the pIC50 was 8.66.

In the case of `Cc1cc(=O)oc2cc(OCc3cc(-c4ccccc4)no3)ccc12` [4-methyl-7-(3-phenylisoxazol-5-yl-methoxy)-coumarin], in test [1], the fungicidal action result is on record as “little or no success”. Further, the bacteriostatic action entry in test [2] was “little or no success”.

For `Cc1c(C)c2ccc(OCc3cc(C4CCCCC4)no3)cc2oc1=O` [Example 87, 7-(3-Cyclohexylisoxazol-5-yl)-methoxy-3,4-dimethylcoumarin], the pIC50 at MAO A is less than 5.00. On MAO B, the “IC50 ratio MAO A / MAO B” value is reported as more than 700 and the pIC50 was 7.85.

Consider `CC(C)c1cc(COc2ccc3c4c(c(=O)oc3c2)CCCC4)nn1C` [Example 55, 7-(5-Isopropyl-1-methylpyrazol-3-yl)-methoxy-3,4-tetramethylenecoumarin], for which, on MAO A, the negative-log IC50 (pIC50) is less than 5.00. For the same molecule, on MAO B, the “IC50 ratio MAO A / MAO B” value is listed as more than 1000 and the pIC50 is 8.00.

On to `Cc1c(C)c2ccc(OCc3cc(C(C)C)no3)cc2oc1=O` [Example 33, 7-(3-Isopropylisoxazol-5-yl)-methoxy-3,4-dimethylcoumarin], for which the negative logarithm of the IC50 (pIC50) against MAO A is approximately 5.22; against MAO B it was 9.14. Besides, the “IC50 ratio MAO A / MAO B” value on MAO B is reported as ~ 8200.

`Cc1noc(COc2ccc3c(C)c(C)c(=O)oc3c2)n1` [Example 50, 3,4-Dimethyl-7-(3-methyl-1,2,4-oxadiazol-5-yl)-methoxycoumarin] gave a negative-log IC50 (pIC50) on MAO A of approximately 5.40. In addition, on MAO B, the “IC50 ratio MAO A / MAO B” value was ~ 930 and the pIC50 was 8.37.

For `Cc1c(C)c2ccc(OCC3COc4ccccc4O3)cc2oc1=O` (stereo not shown) [Example 21, 7-(Benzodioxan-2-yl)-methoxy-3,4-dimethylcoumarin], on MAO A, the pIC50 was approximately 5.00. Further, on MAO B, the “IC50 ratio MAO A / MAO B” value was ~ 1300 and the pIC50 is 8.11.

Turning to `Cc1c(C)c2ccc(OCc3nc(C4CCCC4)no3)cc2oc1=O` [Example 98], the pIC50 on MAO A was less than 5.00; on MAO B, 9.04. Also, the “IC50 ratio MAO A / MAO B” value at MAO B is reported as more than 11000.

As for `COC(C)c1cc(COc2ccc3c(C)c(C)c(=O)oc3c2)on1` (stereo not shown) [Example 79, 7-[3-(1-Methoxyethyl)-isoxazol-5-yl]-methoxy-3,4-dimethylcoumarin], the pIC50 on MAO A is 5.54. At MAO B, the “IC50 ratio MAO A / MAO B” value stood at 2400 and the negative-log IC50 (pIC50) was 8.92.

For `Cc1c(C)c2ccc(OCc3ncnn3C(C)C)cc2oc1=O` [Example 70, 7-(1-Isopropyl-1,2,4-triazol-5-yl)-methoxy-3,4-dimethylcoumarin hydrochloride], on MAO A, the pIC50 was less than 5.00. Further, at MAO B, the “IC50 ratio MAO A / MAO B” value is given as more than 770 and the pIC50 is 7.89.

At MAO A, `Cc1c(C)c2ccc(OCc3cc(C4CC4)on3)cc2oc1=O` [Example 58, 7-(5-Cyclopropylisoxazol-3-yl)-methoxy-3,4-dimethylcoumarin] had a pIC50 of approximately 5.15. For the same molecule, at MAO B, the “IC50 ratio MAO A / MAO B” value was ~ 8300 and the pIC50 is 9.08.

In the case of `Cc1cc(COc2ccc3c(C)c(C)c(=O)oc3c2)on1` [Example 3, 3,4-Dimethyl-7-(3-methylisoxazol-5-yl)-methoxycoumarin], on MAO A, the pIC50 is 5.82. At MAO B, the “IC50 ratio MAO A / MAO B” value was 710 and the negative logarithm of the IC50 (pIC50) is 8.68.

Turning to `Cc1c(C)c2ccc(OCc3cc(C)n(C)n3)cc2oc1=O` [Example 73, 3,4-Dimethyl-7-(1,5-dimethylpyrazol-3-yl)-methoxycoumarin], the pIC50 against MAO A was less than 5.00. Further, on MAO B, the “IC50 ratio MAO A / MAO B” value is more than 700 and the negative-log IC50 (pIC50) was 7.85.

With `Cc1c(Cl)c(=O)oc2cc(OCc3csc(C(C)C)n3)c(Cl)cc12` [Example 103, 3,6-Dichloro-4-methyl-7-(2-isopropylthiazol-4-yl)-methoxycoumarin], the results for the pIC50 against MAO A and on MAO B were less than 5.00 and 8.74, respectively. In addition, the “IC50 ratio MAO A / MAO B” value on MAO B is reported as more than 5500.

`CCc1nnc(COc2ccc3c(C)c(C)c(=O)oc3c2)o1` [Example 7, 7-(2-Ethyl-1,3,4-oxadiazol-5-yl)-methoxy-3,4-dimethylcoumarin] had a negative-log IC50 (pIC50) at MAO A of approximately 5.00. Further, at MAO B, the “IC50 ratio MAO A / MAO B” value is given as ~ 900 and the pIC50 was 7.96.

As for `Cc1c(C)c2ccc(OCc3cc(C(C)(C)C)no3)cc2oc1=O` [Example 35, 7-(3-tert-Butylisoxazol-5-yl)-methoxy-3,4-dimethylcoumarin], the pIC50 against MAO A was less than 5.00. Also, at MAO B, the “IC50 ratio MAO A / MAO B” value is given as more than 11000 and the pIC50 was 9.04.
